Results: ChEMBL document CHEMBL5523725, “Fragment-Based Anti-inflammatory Agent Design and Target Identification: Discovery of AF-45 as an IRAK4 Inhibitor to Treat Ulcerative Colitis and Acute Lung Injury” (J Med Chem, 2024)
Active and inactive are the calls of the source. The rule behind the calls is not given here.

Columns and labels:
[1] = molecular target: T1, Interleukin-1 receptor-associated kinase 4 (Mus musculus) (UniProt Q8R4K2); assay: Thermal stabilization of IRAK4 in mouse RAW264.7 cells at 10 uM measured after 4 hrs by CETSA; type: cell-based
T1 sequence (whole entry): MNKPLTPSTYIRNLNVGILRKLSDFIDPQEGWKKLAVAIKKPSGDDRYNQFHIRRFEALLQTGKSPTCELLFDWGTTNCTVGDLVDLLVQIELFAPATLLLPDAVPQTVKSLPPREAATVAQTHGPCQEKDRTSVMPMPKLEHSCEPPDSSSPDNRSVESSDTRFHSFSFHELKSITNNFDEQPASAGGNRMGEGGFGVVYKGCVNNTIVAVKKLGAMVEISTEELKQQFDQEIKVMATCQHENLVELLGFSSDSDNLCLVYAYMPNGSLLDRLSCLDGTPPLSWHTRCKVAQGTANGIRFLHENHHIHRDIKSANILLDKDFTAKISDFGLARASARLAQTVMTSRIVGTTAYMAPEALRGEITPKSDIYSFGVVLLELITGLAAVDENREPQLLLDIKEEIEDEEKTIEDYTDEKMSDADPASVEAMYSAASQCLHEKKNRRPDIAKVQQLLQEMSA

RAW264.7 [2] = assay: Inhibition of NFkappaB/MAPK signaling pathway in mouse RAW264.7 cells assessed as reduction in LPS-induced p65 phosphorylation at 50 uM by Western blot analysis; type: cell-based
RAW264.7 [3] = assay: Inhibition of NFkappaB/MAPK signaling pathway in mouse RAW264.7 cells assessed as reduction in LPS-induced JNK phosphorylation at 50 uM by Western blot analysis; type: cell-based
RAW264.7 [4] = assay: Inhibition of NFkappaB/MAPK signaling pathway in mouse RAW264.7 cells assessed as reduction in LPS-induced p38 phosphorylation at 50 uM by Western blot analysis; type: cell-based
RAW264.7 [5] = assay: Inhibition of NFkappaB/MAPK signaling pathway in mouse RAW264.7 cells assessed as reduction in LPS-induced IkappaBalpha degradation at 50 uM by Western blot analysis; type: cell-based
Mus musculus [6] = assay: Anti-colitis activity in male C57BL/6 mouse model of DSS-induced ulcerative colitis assessed as colon length at 10 mg/kg, po administered for 11 days with subsequent administration of DSS for 8 days (reference value: 5.2 cm); type: functional; conditions: time 11 day
Mus musculus [7] = assay: Antiinflammatory activity in male C57BL/6 mouse model of DSS-induced ulcerative colitis assessed as reduction in spleen to body weight ratio at 10 mg/kg, po administered for 11 days with subsequent administration of DSS for 8 days; type: functional, organism-based; conditions: time 11.0 day
Mus musculus [8] = assay: Antiinflammatory activity in male C57BL/6 mouse model of DSS-induced ulcerative colitis assessed as reduction in IL-6 level in serum at 10 mg/kg, po administered for 11 days with subsequent administration of DSS for 8 days by ELISA; type: functional, organism-based; conditions: time 11.0 day
Mus musculus [9] = assay: Antiinflammatory activity in male C57BL/6 mouse model of DSS-induced ulcerative colitis assessed as reduction in TNF-alpha level in serum at 10 mg/kg, po administered for 11 days with subsequent administration of DSS for 8 days by ELISA; type: functional, organism-based; conditions: time 11.0 day
Mus musculus [10] = assay: Antiinflammatory activity in male C57BL/6 mouse model of DSS-induced ulcerative colitis assessed as reduction in colonic structure destruction at 10 mg/kg, po administered for 11 days with subsequent administration of DSS for 8 days by H and E staining based analysis; type: functional, organism-based; conditions: time 11.0 day
Mus musculus [11] = assay: Antiinflammatory activity in male C57BL/6 mouse model of DSS-induced ulcerative colitis assessed as preservation of goblet cells at 10 mg/kg, po administered for 11 days with subsequent administration of DSS for 8 days by H and E staining based analysis; type: functional, organism-based; conditions: time 11.0 day
Mus musculus [12] = assay: Antiinflammatory activity in male C57BL/6 mouse model of DSS-induced ulcerative colitis assessed as restoration of protein status at 10 mg/kg, po administered for 11 days with subsequent administration of DSS for 8 days by H and E staining based analysis; type: functional, organism-based; conditions: time 11.0 day
Mus musculus [13] = assay: Antiinflammatory activity in male C57BL/6 mouse model of DSS-induced ulcerative colitis assessed as reduction in macrophage infiltration in colon at 10 mg/kg, po administered for 11 days with subsequent administration of DSS for 8 days by F4/80 labeling based immunohistochemistry analysis; type: functional, organism-based; conditions: time 11.0 day
Mus musculus [14] = assay: Antiinflammatory activity in male C57BL/6 mouse model of DSS-induced ulcerative colitis assessed as reduction in macrophage infiltration in spleen at 10 mg/kg, po administered for 11 days with subsequent administration of DSS for 8 days by F4/80 labeling based immunohistochemistry analysis; type: functional, organism-based; conditions: time 11.0 day
Mus musculus [15] = assay: In vivo binding affinity to IRAK4 in DSS-induced ulcerative colitis C57BL/6 mouse colon assessed as thermal stabilization at 10 mg/kg, po administered for 11 days with subsequent administration of DSS for 8 days by CETSA; type: functional, organism-based; conditions: time 11.0 day
[16] = Half life in po dosed rat; type: ADME, organism-based; conditions: in vivo

CC[C@@H]1[C@H](F)C(=O)N[C@@H]1COc1nccc2cc(C(N)=O)c(OC)cc12 [ZIMLOVISERTIB]
Activity [1]: Active
inhibition (RAW264.7 [2]): Active
inhibition (RAW264.7 [3]): Active
inhibition (RAW264.7 [4]): Active
inhibition (RAW264.7 [5]): Active
Activity (Mus musculus [6]): 5.5 cm
Activity (Mus musculus [7]): Active
Activity (Mus musculus [8]): Active
Activity (Mus musculus [9]): Active
Activity (Mus musculus [10]): Active
Activity (Mus musculus [11]): Active
Activity (Mus musculus [12]): Active
Activity (Mus musculus [13]): Active
Activity (Mus musculus [14]): Active
Activity (Mus musculus [15]): inactive
half-life [16]: 2.8 h
